We go through five molecules from patent publication US20170266151A1, “Novel salts of 3-[(DIMETHYLAMINO)METHYL]-N--1-BENZOFURAN-2-CARBOXAMIDE, related crystalline forms, method for preparing the same and pharmaceutical compositions containing the same” (Pharmacyclics LLC, priority 2014, published 2017).

Data set [1] in a line: Hygroscopicity by dynamic vapor sorption (DVS). Format: physicochemical. Here is the method: The hygroscopicity of the crystalline forms of the salts of 3-[(dimethylamino)methyl]-N-{2-[4-(hydroxycarbamoyl)phenoxy]ethyl}-1-benzofuran-2-carboxamide according to the invention was evaluated by dynamic vapor sorption (DVS) using a DVS Intrinsic apparatus. A sample of 5 to 10 mg of the substance, weighed accurately, was disposed in a DVS sample pan operating at 25° C. under controlled humidity. The mass variation was recorded on the basis of a balancing bearing at 50% relative humidity, followed by three subsequent linear phases of increasing (from 50 to 90%), of decreasing (from 90 to 0%) and of increasing (from 0 to 50%) the relative humidity at a speed of 10% per hour. The relative humidity was maintained constant when it reached either 0, or 50, or 90% relative humidity, until the mass variation was less than 0.002% per minute, with a time limit of 15 hours.
The hygroscopicity of the hemipentahydrate crystalline form of the hydrogen sulfate of 3-[(dimethylamino)methyl]-N-{2-[4-(hydroxycarbamoyl)phenoxy]ethyl}-1-benzofuran-2-carboxamide according to the invention was evaluated by dynamic vapor sorption (DVS) using a DVS Intrinsic apparatus. A sample of 5 to 10 mg of the substance, weighed accurately, was disposed in a DVS sample pan operating at 25° C. under controlled humidity. The mass variation was recorded on the basis of a balancing bearing at 50% relative humidity, followed by three subsequent linear phases of increasing (from 50 to 90%), of decreasing (from 90 to 0%) and of increasing (from 0 to 50%) the relative humidity at a speed of 10% per hour. The relative humidity was maintained constant when it reached either 0, or 50, or 90 % relative humidity, until the mass variation is less than 0.002% per minute, with a time limit of 15 hours.

Another data set has as its system tumor cells. As to conditions: tumor cells cultured in vitro; Buggy et al. 2006; cited from earlier work.
The test system of a further data set is xenograft models. Particulars: Buggy et al. 2006; cited from earlier work.
The conditions of data set [2]: salt of WO 2004/092115; use on industrial scale difficult; cited from earlier work.

Take `CN(C)Cc1c(C(=O)NCCOc2ccc(C(=O)NO)cc2)oc2ccccc12.O=C(O)C(=O)O` [Example 3, Oxalate of 3-[(dimethylamino)methyl]-N-{2-[4-(hydroxycarbamoyl)phenoxy]ethyl}-1-benzofuran-2-carboxamide]: in data set [1] (exposure to between 0 and 90% relative humidity at 25° C.), the “mass variation detected by DVS analysis” value is listed as “less than 0.2%”. Take `CN(C)Cc1c(C(=O)NCCOc2ccc(C(=O)NO)cc2)oc2ccccc12` [abexinostat, 3-[(Dimethylamino)methyl]-N-{2-[4-(hydroxycarbamoyl)phenoxy]ethyl}-1-benzofuran-2-carboxamide]: in the data set on tumor cells, the effect on apoptosis result is “induce apoptosis” and the “effect on cell growth” value is reported as “inhibit cell growth”. Also, in the data set on xenograft models, the “effect on tumor growth” value was “inhibit tumor growth”. `CN(C)Cc1c(C(=O)NCCOc2ccc(C(=O)NO)cc2)oc2ccccc12.Cl` [hydrochloride, hydrochloride of 3-[(dimethylamino)methyl]-N-{2-[4-(hydroxycarbamoyl)phenoxy]ethyl}-1-benzofuran-2-carboxamide]: the hygroscopic properties result in data set [2] is listed as “hygroscopic”. Turning to “Hydrogen Sulfate of 3-[(dimethylamino)methyl]-N-{2-[4-(hydroxycarbamoyl)phenoxy]ethyl}-1-benzofuran-2-carboxamide [Example 5]”, in data set [1] (DVS, 25° C., increasing humidity), the “relative humidity beyond which converted into hemiheptahydrate hydrogen sulfate” value is recorded as > 70 % relative humidity. Take “Hydrogen Sulfate of 3-[(dimethylamino)methyl]-N-{2-[4-(hydroxycarbamoyl)phenoxy]ethyl}-1-benzofuran-2-carboxamide [Example 6]”: the “relative humidity below which dehydrated completely” value in data set [1] (DVS, 25° C., decreasing humidity to 0%) was “Below 20 % relative humidity”.
